Data as given in PubChem BioAssay (NCI).
Several values for one entry are separate records, joined by “and”; a condition that tells them apart may be missing. Identical values can stand only once.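 These data come from cells grown in 96-well plates and exposed to compound for 48 hours at five concentrations. GI50 is the concentration that inhibits growth by half. TGI: total growth inhibition.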

What was measured:
Assay in all cases: NCI tumour cell line growth inhibition, 48 h
SN12C renal = tested on: SN12C renal
HCT-15 colon = tested on: HCT-15 colon
SF-268 CNS = tested on: SF-268 CNS
EKVX NSCLC = tested on: EKVX NSCLC
MDA-MB-231 breast = tested on: MDA-MB-231 breast
ACHN renal = tested on: ACHN renal
HCC-2998 colon = tested on: HCC-2998 colon
SK-MEL-5 melanoma = tested on: SK-MEL-5 melanoma
A549 NSCLC = tested on: A549 NSCLC
SK-OV-3 ovarian = tested on: SK-OV-3 ovarian

Structure (SMILES)	TGI (SN12C renal)	TGI (HCT-15 colon)	TGI (SF-268 CNS) [µM]	TGI (EKVX NSCLC)	TGI (MDA-MB-231 breast)	TGI (ACHN renal) [µM]	TGI (HCC-2998 colon)	TGI (SK-MEL-5 melanoma) [µM]	TGI (A549 NSCLC)	TGI (SK-OV-3 ovarian) [µM]	GI50 (SN12C renal) [µM]	GI50 (HCT-15 colon) [µM]	GI50 (EKVX NSCLC) [µM]	GI50 (MDA-MB-231 breast) [µM]	GI50 (SF-268 CNS) [µM]	GI50 (HCC-2998 colon) [µM]	GI50 (SK-MEL-5 melanoma) [µM]	GI50 (A549 NSCLC) [µM]
C#CCOC(=O)C(N)CCCN=C(N)N (centres undefined)	> 100 µM	> 100 µM	> 100	> 100 µM	> 100 µM	> 100	> 100 µM	> 100	> 100 µM	–	–	–	–	–	–	–	–	–
COc1ccc(/C=N/n2c(Cc3ccc(Cl)cc3)n[nH]c2=O)c(OC)c1	–	> 100 µM	32	> 100 µM	> 100 µM	> 100	> 100 µM	–	> 100 µM	> 100	–	–	–	–	–	–	–	–
COc1nc2[nH]ccc2c(=O)n1C	> 100 µM	> 100 µM	> 100	> 100 µM	–	> 100	–	> 100	> 100 µM	–	–	–	–	–	–	–	–	–
c1ccc(Nc2nnc(-c3nsc4ccccc34)o2)cc1	> 100 µM	> 100 µM	> 100	> 100 µM	–	> 100	> 100 µM	> 100	> 100 µM	–	–	–	–	–	–	–	–	–
COc1ccc(C2=CN3CCC[C@H]3C=C2c2cc(O)c(OC)c(OC)c2)cc1OC	0.0568 µM and 0.189 µM	–	0.112	0.228 µM and 1.82 µM	0.15 µM	0.0959	0.0412 µM and 0.0431 µM	0.015	0.274 µM and 0.172 µM	0.221	–	–	–	–	–	–	–	–
CN(C)CC(NC(NCS)C(=O)NCCNc1ccc(NCCNC(=O)C(NCS)NC(CN(C)C)OCCl)c2c1C(=O)c1c(O)ccc(O)c1C2=O)OCCl (centres undefined)	0.477 µM	1.73 µM and 1.74 µM	–	1.26 µM and 2.51 µM	0.305 µM and 2.68 µM	0.194	1.86 µM	0.94	1.54 µM	4.11	< 0.001	0.0892	0.516	1.05	–	–	–	–
COc1ccc(/C=C2\CN(C)Cc3c2[nH]c(=O)c(C#N)c3-c2ccc(OC)cc2)cc1	> 100 µM	> 100 µM	> 100	> 100 µM	> 100 µM	> 100	–	> 100	> 100 µM	> 100	–	–	–	–	–	–	–	–
Cc1cccc2c1C/C(=C\c1cccc(C)c1C(=O)O)C2=O	> 100 µM	> 100 µM	> 100	> 100 µM	–	> 100	> 100 µM	> 100	> 100 µM	–	–	–	–	–	–	–	–	–
O=C(NN1C(=O)C=CC1=O)c1ccccc1Nc1ccccc1C(=O)NN1C(=O)C=CC1=O	> 100 µM	> 100 µM	> 100	> 100 µM	> 100 µM	> 100	> 100 µM	> 100	–	–	–	–	–	–	–	–	–	–
CC(C)CCC[C@@H](C)[C@H]1CCC2C3=CCC4C(=O)C=CC(=O)C4C3CC[C@@]21C (some centres undefined)	> 100 µM	> 100 µM	> 100	–	1.32 µM	–	0.855 µM	2.66	–	–	0.256	0.235	0.279	0.331	0.566	0.274	0.419	0.0836
CCOC(=O)C(C)c1nc2cc(N3CCN(C)CC3)c(F)cc2[nH]c1=O (centres undefined)	> 100 µM	> 100 µM	> 100	> 100 µM	> 100 µM	> 100	–	> 100	> 100 µM	> 100	–	–	–	–	–	–	–	–
COC1/C=C/C(C)C(C(C)C(OC)C(C)CCC(=O)C(C)C(C/C=C/N(C)C=O)OC)OC(=O)/C=C/C=C(\C)CC(OC)C(OC)C2=CC(=O)O[C@@H](C(C)C(OC)CC(OC)/C=C/C(C)C(O)C1)[C@H]2O (some centres undefined)	–	0.329 µM	0.407	0.441 µM	0.247 µM	0.594	0.359 µM	0.206	0.781 µM	–	–	–	–	–	–	–	–	–
CC(=O)NC1=C(C)C(=O)c2c(nc3n2CC[C@H]3OC(C)=O)C1=O	3.17 µM	12.6 µM	10.7	17.5 µM	2.71 µM	9.34	7.73 µM	8.07	24.8 µM	–	–	–	–	–	–	–	–	–
COc1ccc(C2(C3c4cc(OC)c(OC)cc4CCN3C)SCCCS2)cc1O (centres undefined)	> 100 µM	> 100 µM	> 100	> 100 µM	> 100 µM	–	> 100 µM	> 100	> 100 µM	> 100	–	–	–	–	–	–	–	–
CCOC(=O)C(=Cn1c(=S)[nH]c2ccc([N+](=O)[O-])cc21)C(=O)OCC	> 100 µM	–	> 100	> 100 µM	> 100 µM	> 100	> 100 µM	> 100	> 100 µM	> 100	–	–	–	–	–	–	–	–
Cc1nnc2sc(N/N=C/c3ccccc3)nn12	> 100 µM	> 100 µM	> 100	> 100 µM	> 100 µM	> 100	–	> 100	> 100 µM	88.1	–	–	–	–	–	–	–	–
COc1cc(CNc2nc3cc(C(F)(F)F)ccc3nc2C)cc(OC)c1OC	30.8 µM	32.8 µM	> 100	67.4 µM	29.3 µM	38.1	37.8 µM	46.9	> 100 µM	–	–	–	–	–	–	–	–	–
Cc1cc([N+](=O)[O-])ccc1N=NC(=O)NNc1ccc([N+](=O)[O-])cc1C	63.8 µM	50.2 µM	40.9	–	–	29.4	31 µM	26.7	31.5 µM	–	–	–	–	–	–	–	–	–
NC(=O)NCCCC(NC(=O)OCCCCCn1ccc(=O)[nH]c1=O)C(=O)O (centres undefined)	> 100 µM	> 100 µM	> 100	> 100 µM	> 100 µM	> 100	> 100 µM	–	> 100 µM	> 100	–	–	–	–	–	–	–	–
CN(c1ccccc1Cl)S(=O)(=O)c1ccccc1[N+](=O)[O-]	> 100 µM	> 100 µM	> 100	> 100 µM	> 100 µM	–	> 100 µM	28.9	> 100 µM	> 100	–	–	–	–	–	–	–	–
CC(=O)OCC1OC(c2nnc(C)o2)=CC(OC(C)=O)C1OC(C)=O (centres undefined)	> 100 µM	–	> 100	> 100 µM	> 100 µM	> 100	–	> 100	> 100 µM	–	–	–	–	–	–	–	–	–
COC(=O)c1cccc(C(=O)OC)c1	> 100 µM	> 100 µM	> 100	–	–	> 100	> 100 µM	–	> 100 µM	> 100	–	–	–	–	–	–	–	–
